{"source": "patent US10874605B2", "about": "“Extended release biodegradable ocular implants” (Allergan, Inc., priority 2004, dated 2020)", "origin": "cited, not measured here", "conditions": "efficacy in vivo", "data": [{"smiles": "C[C@]12CCC(=O)C=C1CC[C@@H]1[C@@H]2[C@@H](O)C[C@@]2(C)[C@H]1CC[C@]2(O)C(=O)CO", "note": "[hydrocortisone]", "values": [{"measurement": "dose equivalent to a 1 mg dose of dexamethasone", "result": 25, "unit": "mg"}, {"measurement": "potency relative to dexamethasone", "result": "approximately twenty five fold less potent than dexamethasone"}]}]}
